Reference: US11981661B2, “Heterocyclic compounds” (Hoffmann-La Roche Inc., priority 2020, dated 2024)

Target: T1, MAGL (Homo sapiens, UniProt Q99685)
T1 sequence (Q99685 1-303): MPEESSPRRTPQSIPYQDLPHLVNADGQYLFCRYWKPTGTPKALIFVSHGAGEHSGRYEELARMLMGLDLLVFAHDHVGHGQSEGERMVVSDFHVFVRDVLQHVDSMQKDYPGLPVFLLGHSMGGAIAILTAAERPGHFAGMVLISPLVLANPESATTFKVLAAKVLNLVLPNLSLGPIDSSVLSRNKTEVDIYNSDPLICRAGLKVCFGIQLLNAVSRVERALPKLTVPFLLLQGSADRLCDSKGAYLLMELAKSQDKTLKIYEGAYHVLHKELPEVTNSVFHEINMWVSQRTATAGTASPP
Test: 2-AG assay (MAGL inhibitory activity, hydrolysis of 2-arachidonoylglycerol followed by mass spectrometry)
Type: biochemical
Details: 50 pM MAGL, 8 μM 2-arachidonoylglycerol, 15 min preincubation, 30 min incubation at RT, concentration range 12.5 μM to 0.8 pM
How it was run: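 50 pM MAGL preincubated 15 min at RT with compound (12.5 μM to 0.8 pM) in 50 mM TRIS, 1 mM EDTA, 0.01% Tween, then 8 μM 2-arachidonoylglycerol for 30 min at RT. Arachidonic acid measured by RapidFire SPE–triple quadrupole MS in negative mode, normalised to d8-arachidonic acid.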

SMILES	IC50
CC1(O)CN(c2ccc(C3CN(C(=O)CC[C@@H]4COC(=O)N4)C3)cn2)C1 [Example 160, (4R)-4-[3-[3-[6-(3-Hydroxy-3-methyl-azetidin-1-yl)-3-pyridyl]azetidin-1-yl]-3-oxo-propyl]oxazolidin-2-one]	1.33 µM
O=C1N[C@H](CCC(=O)N2CC(c3ccc(N4CC(C(F)(F)F)C4)nc3)C2)CO1 [Example 161, (4R)-4-[3-Oxo-3-[3-[6-[3-(trifluoro-methyl)azetidin-1-yl]-3-pyridyl]azetidin-1-yl]propyl]oxazolidin-2-one]	0.065 µM
CN(Cc1ccc(C(F)(F)F)cc1F)C1CN(C(=O)CC[C@@H]2COC(=O)N2)C1 [Example 162, (4R)-4-[3-[3-[[2-Fluoro-4-(trifluoromethyl)phenyl]methyl-methyl-amino]azetidin-1-yl]-3-oxo-propyl] oxazolidin-2-one]	0.108 µM
O=C1N[C@H](CCC(=O)N2CC(OCc3ccc(S(=O)(=O)C(F)(F)F)cc3)C2)CO1 [Example 166, (4R)-4-[3-Oxo-3-[3-[[4-(trifluoro-methylsulfonyl)phenyl]methoxy]azetidin-1-yl]propyl]oxazolidin-2-one]	0.048 µM
O=C1N[C@H](CCC(=O)N2CC(OCc3cccc(S(=O)(=O)C(F)(F)F)c3)C2)CO1 [Example 167, (4R)-4-[3-Oxo-3-[3-[[3-(trifluoro-methylsulfonyl)phenyl]methoxy]azetidin-1-yl]propyl]oxazolidin-2-one]	0.027 µM
O=C1N[C@H](CCC(=O)N2CC(c3noc(-c4ccc(C(F)(F)F)nc4)n3)C2)CO1 [Example 168, (4R)-4-[3-Oxo-3-[3-[5-[6-(trifluoromethyl)-3-pyridyl]-1,2,4-oxadiazol-3-yl]azetidin-1-yl]propyl]oxazolidin-2-one]	2.02 µM
O=C1N[C@H](CCC(=O)N2CC(c3noc(C45CC(C(F)(F)F)(C4)C5)n3)C2)CO1 [Example 169, (4R)-4-[3-Oxo-3-[3-[5-[3-(trifluoromethyl)-1-bicyclo[1.1.1]pentanyl]-1,2,4-oxadiazol-3-yl]azetidin-1-yl]propyl] oxazolidin-2-one]	0.854 µM
CC(C)(O)C1CN(c2ccc(C3CN(C(=O)CC[C@@H]4COC(=O)N4)C3)cn2)C1 [Example 170, (4R)-4-[3-[3-[6-[3-(1-Hydroxy-1-methyl-ethyl)azetidin-1-yl]-3-pyridyl]azetidin-1-yl]-3-oxo-propyl]oxazolidin-2-one]	0.329 µM
O=C1N[C@H](CCC(=O)N2CC(c3ccc(N4CC5(CCCO5)C4)nc3)C2)CO1 [Example 172, (4R)-4-[3-[3-[6-(5-Oxa-2-azaspiro[3.4]octan-2-yl)-3-pyridyl]azetidin-1-yl]-3-oxo-propyl]oxazolidin-2-one]	0.827 µM
O=C1N[C@H](CCC(=O)N2CC(c3ccc(N4CCC5(C4)CC5(F)F)nc3)C2)CO1 (stereo partly drawn) [Example 173, (4R)-4-[3-[3-[6-(2,2-Difluoro-5-azaspiro[2.4]heptan-5-yl)-3-pyridyl]azetidin-1-yl]-3-oxo-propyl]oxazolidin-2-one]	0.045 µM
O=C1N[C@H](CCC(=O)N2CC(c3ccc(-c4nc(C5CC5)n[nH]4)cc3)C2)CO1 [Example 177, (4R)-4-[3-[3-[4-(3-Cyclo-propyl-1H-1,2,4-triazol-5-yl)phenyl]azetidin-1-yl]-3-oxo-propyl]oxazolidin-2-one]	0.353 µM
O=C1N[C@H](CCC(=O)N2CC(c3ccc(-c4nc(C5(C(F)(F)F)CC5)n[nH]4)cc3)C2)CO1 [Example 178, (4R)-4-[3-Oxo-3-[3-[4-[3-[1-(trifluoro-methyl)cyclo-propyl]-1H-1,2,4-triazol-5-yl]phenyl]azetidin-1-yl]propyl]oxazolidin-2-one]	0.181 µM
CS(=O)(=O)c1cccc(CC2CC3(C2)CN(C(=O)CC[C@@H]2COC(=O)N2)C3)c1 [Example 179, (4R)-4-[3-[6-[(3-Methyl-sulfonylphenyl)methyl]-2-azaspiro[3.3]heptan-2-yl]-3-oxo-propyl]oxazolidin-2-one]	0.046 µM
CS(=O)(=O)c1ccc(CC2CC3(C2)CN(C(=O)CC[C@@H]2COC(=O)N2)C3)cc1 [Example 180, (4R)-4-[3-[6-[(4-Methyl-sulfonylphenyl)methyl]-2-azaspiro[3.3]heptan-2-yl]-3-oxo-propyl]oxazolidin-2-one]	0.093 µM
O=C1N[C@H](CCC(=O)N2CC3(CC(Cc4ccc(C(F)(F)F)nn4)C3)C2)CO1 [Example 181, (4R)-4-[3-Oxo-3-[6-[[6-(trifluoro-methyl)pyridazin-3-yl]methyl]-2-azaspiro[3.3]heptan-2-yl]propyl] oxazolidin-2-one]	0.227 µM
O=C1N[C@H](CCC(=O)N2CC3(CC(Cc4cnc(C(F)(F)F)nc4)C3)C2)CO1 [Example 182, (4R)-4-[3-Oxo-3-[6-[[2-(trifluoro-methyl)pyrimidin-5-yl]methyl]-2-azaspiro[3.3]heptan-2-yl]propyl] oxazolidin-2-one]	0.246 µM
O=C1N[C@H](CCC(=O)N2CC3(CC(Cc4ncc(C(F)(F)F)cn4)C3)C2)CO1 [Example 183, (4R)-4-[3-Oxo-3-[6-[[5-(trifluoro-methyl)pyrimidin-2-yl]methyl]-2-azaspiro[3.3]heptan-2-yl]propyl] oxazolidin-2-one]	0.084 µM
CS(=O)(=O)c1cc(F)cc(CC2CC3(C2)CN(C(=O)CC[C@@H]2COC(=O)N2)C3)c1 [Example 184, (4R)-4-[3-[6-[(3-Fluoro-5-methylsulfonyl-phenyl)methyl]-2-azaspiro[3.3]heptan-2-yl]-3-oxo-propyl]oxazolidin-2-one]	0.059 µM
O=C1N[C@H](CCC(=O)N2CC3(CC(n4cnc(C5CC5)n4)C3)C2)CO1 [Example 185, (4R)-4-[3-[6-(3-Cyclopropyl-1,2,4-triazol-1-yl)-2-azaspiro [3.3]heptan-2-yl]-3-oxo-propyl] oxazolidin-2-one]	0.464 µM
O=C1N[C@H](CCC(=O)N2CC3(CN(Cc4ccc(S(=O)(=O)C(F)(F)F)cc4)C3)C2)CO1 [Example 187, (4R)-4-[3-Oxo-3-[6-[[4-(trifluoro-methylsulfonyl)phenyl]methyl]-2,6-diazaspiro [3.3]heptan-2-yl]propyl] oxazolidin-2-one]	0.206 µM
O=C1N[C@H](CCC(=O)N2CC3(CCC(Cc4cnc(C(F)(F)F)cn4)CC3)C2)CO1 [Example 190, (4R)-4-[3-Oxo-3-[7-[[5-(trifluoro-methyl)pyrazin-2-yl]methyl]-2-azaspiro[3.5]nonan-2-yl]propyl] oxazolidin-2-one]	0.14 µM

Now those with a lower IC50, led by results:

IC50	SMILES
0.009 µM	O=C1N[C@H](CCC(=O)N2CC(c3ccc(C4CC5(CCC5)C4)nc3)C2)CO1 [Example 163, (4R)-4-[3-Oxo-3-[3-(6-spiro[3.3]heptan-2-yl-3-pyridyl)azetidin-1-yl]propyl] oxazolidin-2-one]
0.012 µM	O=C1N[C@H](CCC(=O)N2CC(c3cnc(C4CC5(CCC5)C4)cn3)C2)CO1 [Example 164, (4R)-4-[3-Oxo-3-[3-(5-spiro[3.3]heptan-2-ylpyrazin-2-yl)azetidin-1-yl]propyl] oxazolidin-2-one]
0.024 µM	CC(C)(C)Cc1nnc(C23CC(C4CN(C(=O)CC[C@@H]5COC(=O)N5)C4)(C2)C3)o1 [Example 165, (4R)-4-[3-[3-[3-[5-(2,2-Dimethyl-propyl)-1,3,4-oxadiazol-2-yl]-1-bicyclo[1.1.1]pentanyl]azetidin-1-yl]-3-oxo-propyl] oxazolidin-2-one]
0.021 µM	O=C1N[C@H](CCC(=O)N2CC(c3ccc(C4(CO)CC4)cc3)C2)CO1 [Example 171, (4R)-4-[3-[3-[4-[1-(Hydroxy-methyl)cyclo-propyl]phenyl]azetidin-1-yl]-3-oxo-propyl] oxazolidin-2-one]
0.02 µM	O=C1N[C@H](CCC(=O)N2CC(c3ccc(Oc4cnc(C(F)(F)F)cn4)cc3)C2)CO1 [Example 174, (4R)-4-[3-Oxo-3-[3-[4-[5-(trifluoromethyl)pyrazin-2-yl]oxyphenyl]azetidin-1-yl]propyl]oxazolidin-2-one]
0.017 µM	O=C1N[C@H](CCC(=O)N2CC(c3ccc(NCC4(C(F)(F)F)CC4)cn3)C2)CO1 [Example 175, (4R)-4-[3-Oxo-3-[3-[5-[[1-(trifluoromethyl)cyclopropyl]methylamino]-2-pyridyl]azetidin-1-yl]propyl]oxazolidin-2-one]
0.012 µM	O=C1N[C@H](CCC(=O)N2CC(c3cnc(NCC4(C(F)(F)F)CC4)cn3)C2)CO1 [Example 176, (4R)-4-[3-Oxo-3-[3-[5-[[1-(trifluoromethyl)cyclopropyl]methylamino]pyrazin-2-yl]azetidin-1-yl]propyl] oxazolidin-2-one]
0.002 µM	O=C1N[C@H](CCC(=O)N2CC3(CC(Cc4cccc(S(=O)(=O)C(F)(F)F)c4)C3)C2)CO1 [Example 186, (4R)-4-[3-Oxo-3-[6-[[3-(trifluoro-methylsulfonyl)phenyl]methyl]-2-azaspiro[3.3]heptan-2-yl]propyl] oxazolidin-2-one]
0.025 µM	O=C1N[C@H](CCC(=O)N2CC3(CCC(Cc4ccc(C(F)(F)F)nc4)CC3)C2)CO1 [Example 188, (4R)-4-[3-Oxo-3-[7-[[6-(trifluoro-methyl)-3-pyridyl]methyl]-2-azaspiro[3.5]nonan-2-yI]propyl] oxazolidin-2-one]
0.016 µM	O=C1N[C@H](CCC(=O)N2CC3(CCC(Cc4ccc(C(F)(F)F)cn4)CC3)C2)CO1 [Example 189, (4R)-4-[3-Oxo-3-[7-[[5-(trifluoro-methyl)-2-pyridyl]methyl]-2-azaspiro[3.5]nonan-2-yl]propyl] oxazolidin-2-one]
